Source: US11179372B2, “Isoxazoline solution containing vitamin E for use with sanitized drinking water” (Intervet Inc., priority 2015, dated 2021)

What was measured:
[1] = Solubility and mixing of protectors in the base pharmaceutical composition; conditions: for Solubility in the base pharmaceutical composition: 0.95% w/w Fluralaner in Transcutol V and Tween 80 25:75
Method: To the base of a pharmaceutical composition as described herein, comprising isoxazoline, solvent, and surfactant, different compounds were added as protectors to prevent breakdown of isoxazoline when diluted in water with a water sanitizer such as hypochlorite.
Where the protector amount was zero, this sample served as unprotected control sample. The Fluralaner level was determined using UHPLC. The alpha-tocopherol used was alpha-tocopherol EP (Fluka).
For samples containing a protector, Fluralaner was added to a mixture of Transcutol V, Tween 80 and protector, and then mixed to dissolve.

[2] = Accelerated stability testing of pharmaceutical composition comprising a protector; assay type: physicochemical; conditions: for Appearance of the pharmaceutical composition with protector on storage: stability results up to 4 months, tests terminated
Method: Similar to the experiments described in Example 3 above, where the effect of water quality on Fluralaner-containing medicated drinking water was tested; here samples of the pharmaceutical composition were tested for an effect of the addition of a protector, on their stability during prolonged storage.
To test the long term stability of the pharmaceutical composition with a protector, some samples were stored under conditions of accelerated ageing. Samples of the pharmaceutical composition with or without one of the protectors, were filled out in portions of 7 gram each, in 10 ml glass vials, sealed with rubber stoppers, and stored under different conditions: 2-8° C.; 30° C./65% RH; 40° C./75% RH, and 50° C. […]

[3] = Prevention of degradation by oxidizing sanitizer (hypochlorite) in medicated drinking water; assay type: physicochemical; conditions: for Colour during incubation in sanitized water: a few days into the incubation
Method: The Fluralaner level was determined using UHPLC. The alpha-tocopherol used was alpha-tocopherol EP (Fluka).
To prepare the test samples, the required amounts of Transcutol and Tween were measured, combined in a beaker at room temperature, and mixed magnetically. Next, when no protector was added, the required amount of Fluralaner was weighed, added, and mixed until complete dissolution, which usually required about 10 minutes, at 70% speed. […] The complete dissolution was verified visually. Next the density of the resulting solution was checked with a Densimeter, at 20° C.
To test the capacity of the different protectors to prevent degradation of Fluralaner in medicated drinking water by an oxidising sanitizer, samples of the pharmaceutical composition as prepared above were diluted to different concentrations, and incubated with different amounts of hypochlorite. Concentrations of Fluralaner in medicated drinking water used were: 1, 5, and 10 μg/ml.
The hypochlorite used was from a 13% sodium hypochlorite solution (Acros Organics), which was prepared into samples with a concentration of hypochlorite of: 0, 0.5, 2, 5, or 10 ppm, wherein 1 ppm equals 20 μM. Samples without hypochlorite served as positive controls. While the dilutions of hypochlorite were made in purified water, one additional sample at 5 ppm hypochlorite was prepared in standard tap water (Angers, France). Control samples were tested at day zero, all others were tested after an incubation for 7 days at 40° C./75% RH.
The concentration of protector in the test sample was dependent of the dilution factor of the concentrated Fluralaner composition applied: 1:10,000, 1:2000, or 1:1000, respectively.

Row | SMILES | Solubility in the base pharmaceutical composition [1] | Appearance of the pharmaceutical composition with protector on storage [2] | Colour during incubation in sanitized water [3] | other results
1 | Cc1cc(C(C)(C)C)c(O)c(C(C)(C)C)c1 [BHT, butylated hydroxytoluene] | soluble | discoloration | colour change did develop | 
2 | COc1ccc(O)c(C(C)(C)C)c1 [BHA, butylated hydroxyanisole] | soluble | discoloration | colour change did develop | 
3 | Cc1c(C)c2c(c(C)c1O)CC[C@@](C)(CCC[C@H](C)CCC[C@H](C)CCCC(C)C)O2 [alpha-tocopherol] |  |  |  | Stability of pharmaceutical composition, interaction by protector ([2]; stability data up to 18 months): lack of interaction; Level of alpha-tocopherol in pharmaceutical composition on storage ([2]; up to 8 months, 2-8° C., 30° C./65% RH, 40° C./75% RH, 50° C.): no significant reduction; Protection of Fluralaner from degradation in sanitized drinking water ([3]; Fluralaner 1 μg/ml and 10 ppm hypochlorite, 7 days): could not protect; Protection of Fluralaner from degradation in sanitized drinking water ([3]; Fluralaner at 5 or 10 μg/ml, up to 7 days, 40° C., up to 10 ppm hypochlorite): completely protect
4 | O=S([O-])[O-].[Na+].[Na+] [Na-sulphite, Sodium sulphite] | not soluble |  |  | 

More lines, main results first:

Row | Solubility in the base pharmaceutical composition [1] | SMILES | Appearance of the pharmaceutical composition with protector on storage [2] | Colour during incubation in sanitized water [3] | other results
5 | not soluble | O=S([O-])S(=O)(=O)[O-].[Na+].[Na+] [Na-metabisulfite, Sodium metabisulfite] |  |  | 
6 | soluble | CCCCCCCCCCCCOC(=O)c1cc(O)c(O)c(O)c1 [Lauryl gallate, dodecyl gallate] |  |  | Appearance after mixing in the base pharmaceutical composition [1]: orange coloration; Appearance of the pharmaceutical composition with protector ([2]; shortly after preparation): orange coloration appeared
